Reference: US20140213520A1, “METHODS OF TREATING CARDIOVASCULAR INDICATIONS” (Cardiorentis Ltd., priority 2013, published 2014)

What was measured:
Assay type in all cases: cell-based
[1] = system: Cardiac microvascular endothelial cells (HCMEC); assay: total protein nitrosylation by western blotting in HCMEC exposed to cocktail; settings: HCMEC exposed 30 hours to cocktail; treated at 2, 4, 6, 10 or 24 hours; FIG. 2
Description: (§1) Cardiac microvascular endothelial cells (“HCMEC”) were exposed for 30 hours to a conditioned milieu (“cocktail”) containing a selection of factors (C-reactive protein at 10 μg/ml, TNF-alpha at 10 μg/ml, IL-1β at 10 ng/ml, endothelin-1 at 10 pg/ml and galectin-3 at 20 ng/ml) found in the plasma of ADHF patients. […] The cells from each exposure were harvested at 30 hours for experimental data. Experimental readouts included apoptosis, total protein nitrosylation and lactate dehydrogenase (“LDH”) assay.
The data represented by FIG. 2 is directed to protein nitrosylation which is a postranlational modification caused by peroxynitrite. Peroxynitrite (ONOO^−) results from the scavenging action of superoxide anion (O2^−) on nitric oxide (NO) and results in a decreased bioavailability of the latter. Protein Nitrosylation has several deleterious effects on key vasoactive factors and their function, e.g. prostacyclin synthase is inactivated by nitrosylation.

[2] = system: Cardiac microvascular endothelial cells (HCMEC); assay: apoptosis ELISA measuring DNA fragmentation in HCMEC exposed to conditioned milieu (cocktail); settings: HCMEC exposed 30 hours to cocktail (C-reactive protein, TNF-alpha, IL-1β, endothelin-1, galectin-3); treated at 2, 4, 6, 10 or 24 hours; FIG. 1
Description: as §1
In the data represented by FIG. 1, apoptosis was assessed by performing an ELISA (enzyme-linked immunosorbent assay) measuring DNA fragmentation.

[3] = system: Cardiac microvascular endothelial cells (HCMEC); assay: LDH assay: LDH release into culture medium by spectrophotometry; settings: HCMEC exposed 30 hours to cocktail; treatment at two hours; FIG. 3
Description: as §1
FIG. 3 depicts a LDH assay that was performed by measuring LDH release (by spectrophotometry) in the medium where cells were cultured. LDH is a cytoplasmic enzyme released by cells following membrane damage (i.e., cell death).

Substance: relaxin
- protein nitrosylation (western blotting) [1]: antioxidant property that decreases over time
- cocktail-induced apoptosis (DNA fragmentation ELISA) [2]: decrease cocktail-induced apoptosis
- LDH release (cell death) [3]: increase in cell death
